Measured values as given in PubChem BioAssay (NCI).
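Each compound was tested at five concentrations against cells in 96-well plates for 48 hours. TGI marks complete inhibition of growth.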

What was measured:
Assay in all cases: NCI-60 cell line screen, 48 h
HL-60(TB) leukemia = system: HL-60(TB) leukemia
MDA-MB-435 = system: MDA-MB-435
HCC-2998 colon = system: HCC-2998 colon
COLO 205 colon = system: COLO 205 colon
HCT-116 colon = system: HCT-116 colon
LOX IMVI melanoma = system: LOX IMVI melanoma
MDA-N = system: MDA-N
SF-539 CNS = system: SF-539 CNS
SK-MEL-28 melanoma = system: SK-MEL-28 melanoma
UO-31 renal = system: UO-31 renal
SW-620 colon = system: SW-620 colon
IGROV1 ovarian = system: IGROV1 ovarian
HCT-15 colon = system: HCT-15 colon
MDA-MB-231 breast = system: MDA-MB-231 breast
RXF 393 renal = system: RXF 393 renal
SF-268 CNS = system: SF-268 CNS
CCRF-CEM leukemia = system: CCRF-CEM leukemia
ACHN renal = system: ACHN renal
A549 NSCLC = system: A549 NSCLC
MOLT-4 leukemia = system: MOLT-4 leukemia
NCI-H522 lung = system: NCI-H522 lung
DU-145 prostate = system: DU-145 prostate
HT29 colon = system: HT29 colon
OVCAR-3 ovarian = system: OVCAR-3 ovarian
SNB-19 CNS = system: SNB-19 CNS
K-562 leukemia = system: K-562 leukemia
T-47D breast = system: T-47D breast
A498 renal = system: A498 renal
NCI-H460 lung = system: NCI-H460 lung
NCI/ADR-RES ovarian = system: NCI/ADR-RES ovarian
U251 CNS = system: U251 CNS
OVCAR-4 ovarian = system: OVCAR-4 ovarian
CAKI-1 renal = system: CAKI-1 renal
KM12 colon = system: KM12 colon
MALME-3M melanoma = system: MALME-3M melanoma
NCI-H23 lung = system: NCI-H23 lung
HS 578T breast = system: HS 578T breast
RPMI-8226 leukemia = system: RPMI-8226 leukemia
SF-295 CNS = system: SF-295 CNS
TK-10 renal = system: TK-10 renal
SNB-75 CNS = system: SNB-75 CNS
786-0 renal = system: 786-0 renal
HOP-92 NSCLC = system: HOP-92 NSCLC
SK-MEL-2 melanoma = system: SK-MEL-2 melanoma
MCF7 breast = system: MCF7 breast
M14 melanoma = system: M14 melanoma
SK-MEL-5 melanoma = system: SK-MEL-5 melanoma
SN12C renal = system: SN12C renal
OVCAR-5 ovarian = system: OVCAR-5 ovarian
HOP-62 NSCLC = system: HOP-62 NSCLC
SK-OV-3 ovarian = system: SK-OV-3 ovarian
EKVX NSCLC = system: EKVX NSCLC
PC-3 prostate = system: PC-3 prostate
NCI-H226 lung = system: NCI-H226 lung
BT-549 breast = system: BT-549 breast
UACC-62 melanoma = system: UACC-62 melanoma
UACC-257 melanoma = system: UACC-257 melanoma
OVCAR-8 ovarian = system: OVCAR-8 ovarian
SR leukemia = system: SR leukemia

Compound: CC(C)/C(Cl)=N/OC(=O)Nc1ccc(F)c(Cl)c1
- TGI (HL-60(TB) leukemia): 5.23 µM
- TGI (MDA-MB-435): 23.4 µM
- TGI (HCC-2998 colon): 28.1 µM
- TGI (COLO 205 colon): 3.25 µM
- TGI (HCT-116 colon): 6.77 µM
- TGI (LOX IMVI melanoma): 3.59 µM
- TGI (MDA-N): 14.8 µM
- TGI (SF-539 CNS): 20.9 µM
- TGI (SK-MEL-28 melanoma): 5.46 µM
- TGI (UO-31 renal): 30.4 µM
- TGI (SW-620 colon): 3.47 µM
- TGI (IGROV1 ovarian): 28.4 µM
- TGI (HCT-15 colon): 4.16 µM
- TGI (MDA-MB-231 breast): 30.7 µM
- TGI (RXF 393 renal): 25.6 µM
- TGI (SF-268 CNS): 40.3 µM
- TGI (CCRF-CEM leukemia): > 20.2 µM
- TGI (ACHN renal): 4.13 µM
- TGI (A549 NSCLC): 37.4 µM
- TGI (MOLT-4 leukemia): 4.72 µM
- TGI (NCI-H522 lung): 3.01 µM
- TGI (DU-145 prostate): 30.5 µM
- TGI (HT29 colon): 13.3 µM
- TGI (OVCAR-3 ovarian): 9.11 µM
- TGI (SNB-19 CNS): 45.8 µM
- TGI (K-562 leukemia): > 100 µM
- TGI (T-47D breast): 12.7 µM
- TGI (A498 renal): 33.3 µM
- TGI (NCI-H460 lung): 35.4 µM
- TGI (NCI/ADR-RES ovarian): 29.3 µM
- TGI (U251 CNS): 40.3 µM
- TGI (OVCAR-4 ovarian): 24.3 µM
- TGI (CAKI-1 renal): 3.06 µM
- TGI (KM12 colon): 30.6 µM
- TGI (MALME-3M melanoma): 4.08 µM
- TGI (NCI-H23 lung): 27.8 µM
- TGI (HS 578T breast): 53.3 µM
- TGI (RPMI-8226 leukemia): 2.97 µM
- TGI (SF-295 CNS): 29.8 µM
- TGI (TK-10 renal): 31.9 µM
- TGI (SNB-75 CNS): 32 µM
- TGI (786-0 renal): 2.96 µM
- TGI (HOP-92 NSCLC): 3 µM
- TGI (SK-MEL-2 melanoma): 34.2 µM
- TGI (MCF7 breast): 22.4 µM
- TGI (M14 melanoma): 10.6 µM
- TGI (SK-MEL-5 melanoma): 28.2 µM
- TGI (SN12C renal): 3.21 µM
- TGI (OVCAR-5 ovarian): 34.6 µM
- TGI (HOP-62 NSCLC): 32.8 µM
- TGI (SK-OV-3 ovarian): 30 µM
- TGI (EKVX NSCLC): 5.17 µM
- TGI (PC-3 prostate): 29.8 µM
- TGI (NCI-H226 lung): 30.9 µM
- TGI (BT-549 breast): 9.98 µM
- TGI (UACC-62 melanoma): 27.3 µM
- TGI (UACC-257 melanoma): 26.5 µM
- TGI (OVCAR-8 ovarian): 32.4 µM

Compound: N#CCC1COc2ccccc2O1 (centres undefined)
- TGI (HL-60(TB) leukemia): > 10 µM
- TGI (MDA-MB-435): > 10 µM
- TGI (HCC-2998 colon): > 10 µM
- TGI (COLO 205 colon): > 10 µM
- TGI (HCT-116 colon): > 10 µM
- TGI (LOX IMVI melanoma): > 10 µM
- TGI (MDA-N): > 10 µM
- TGI (SF-539 CNS): > 10 µM
- TGI (SK-MEL-28 melanoma): > 10 µM
- TGI (SW-620 colon): > 10 µM
- TGI (IGROV1 ovarian): > 10 µM
- TGI (HCT-15 colon): > 10 µM
- TGI (MDA-MB-231 breast): > 10 µM
- TGI (SF-268 CNS): > 10 µM
- TGI (CCRF-CEM leukemia): > 10 µM
- TGI (ACHN renal): > 10 µM
- TGI (A549 NSCLC): > 10 µM
- TGI (MOLT-4 leukemia): > 10 µM
- TGI (NCI-H522 lung): > 10 µM
- TGI (DU-145 prostate): > 10 µM
- TGI (HT29 colon): > 10 µM
- TGI (SNB-19 CNS): > 10 µM
- TGI (K-562 leukemia): > 10 µM
- TGI (T-47D breast): > 10 µM
- TGI (NCI/ADR-RES ovarian): > 10 µM
- TGI (U251 CNS): > 10 µM
- TGI (OVCAR-4 ovarian): > 10 µM
- TGI (CAKI-1 renal): > 10 µM
- TGI (KM12 colon): > 10 µM
- TGI (MALME-3M melanoma): > 10 µM
- TGI (NCI-H23 lung): > 10 µM
- TGI (HS 578T breast): > 10 µM
- TGI (RPMI-8226 leukemia): > 10 µM
- TGI (SF-295 CNS): > 10 µM
- TGI (TK-10 renal): > 10 µM
- TGI (SNB-75 CNS): > 10 µM
- TGI (786-0 renal): > 10 µM
- TGI (HOP-92 NSCLC): > 10 µM
- TGI (MCF7 breast): > 10 µM
- TGI (M14 melanoma): > 10 µM
- TGI (SK-MEL-5 melanoma): > 10 µM
- TGI (SN12C renal): > 10 µM
- TGI (OVCAR-5 ovarian): > 10 µM
- TGI (HOP-62 NSCLC): > 10 µM
- TGI (SK-OV-3 ovarian): > 10 µM
- TGI (PC-3 prostate): > 10 µM
- TGI (SR leukemia): > 10 µM
- TGI (BT-549 breast): > 10 µM
- TGI (UACC-62 melanoma): > 10 µM
- TGI (UACC-257 melanoma): > 10 µM
- TGI (OVCAR-8 ovarian): > 10 µM
